# Experimental data from patent US20120040898A1, “PHARMACEUTICAL COMPOSITIONS” (TAISHO PHARMACEUTICAL CO., LTD, priority 2009, published 2012).
# Structures can show the parent of a compound that is named as a salt.
# Tests used:
# Assay type in all cases: in vivo
# Zucker fatty rats [1] = assay: Combination treatment of compound A and acarbose in diabetic rats (soluble starch loading); conditions: fasted Zucker fatty rats; single oral dose compound A 1 mg/kg, acarbose 1 mg/kg, alone or combined; soluble starch 2 g/kg one minute later; up to 120 minutes; mean ± standard error
# Protocol: Six male Zucker fatty rats (11-week old) were fasted and orally administered with single doses of compound A (1 mg/kg) and an α-glucosidase inhibitor, acarbose (1 mg/kg), either alone or in combination. […] Wako Pure Chemical Industries, Ltd.)
# KKAy mice [2] = assay: Chronic combination treatment of compound A and glimepiride in diabetic mice; conditions: non-fasting, compound A 0.03% mixed diet, glimepiride 0.5 mg/kg once daily, alone or combined, one hour after drug administration, mean ± standard error
# Protocol: Seven or eight female KKAy mice/group (4-week old; CLEA JAPAN, Inc.) were orally administered with repeated doses of compound A (0.03% mixed diet; ad libitum) and an insulin secretagogue, glimepiride (0.5 mg/kg, once daily; SIGMA-ALDRICH JAPAN K.K.), either alone or in combination, for 8 weeks. […] Plasma glucose levels were measured by the GDH electrode method with a self-testing glucose measuring instrument (Glutest Neo Super; […]
# C57BL mice = assay: Combination treatment of compound A and glimepiride in normal mice; conditions: normoglycemic C57BL mice, non-fasting; single oral dose compound A 10 mg/kg, glimepiride 0.5 mg/kg, alone or combined; up to 3 hours; mean ± standard error
# Protocol: (§1) CLEA Japan, Inc.) and 10 female C57BL mice/group (normal mice; 4-week old; CLEA Japan, Inc.) were orally administered with single doses of compound A (10 mg/kg) and an insulin secretagogue, glimepiride (0.5 mg/kg; SIGMA-ALDRICH JAPAN K.K.), either alone or in combination. Blood was taken from the tail vein of each mouse at specified time intervals and plasma glucose levels were measured by the GDH electrode method with a self-testing glucose measuring instrument (Glutest Neo Super; […] CO., LTD.)
# KKAy mice [3] = assay: Combination treatment of compound A and glimepiride in diabetic mice; conditions: non-fasting, single oral dose compound A 10 mg/kg, glimepiride 0.5 mg/kg, alone or combined, up to 3 hours, mean ± standard error
# Protocol: as §1
# db/db mice [4] = assay: Chronic combination treatment of compound A and pioglitazone in diabetic mice; conditions: compound A 3 mg/kg, pioglitazone 10 mg/kg, once daily oral, alone or combined, 27 days, mean ± standard error; for Change in GHb (%): after minus before; for Change in plasma IRI level: non-fasting
# Zucker fatty rats [5] = assay: Combination treatment of compound A and sitagliptin in diabetic rats (oral glucose loading); conditions: fasted Zucker fatty rats; single oral dose compound A 1 mg/kg, sitagliptin 0.3 mg/kg, alone or combined; glucose 2 g/kg one hour later; up to 120 minutes; mean ± standard error
# Protocol: Eight male Zucker fatty rats/group (10-week old) were fasted and orally administered with single doses of compound A (1 mg/kg) and a DPP-IV inhibitor, sitagliptin (0.3 mg/kg), either alone or in combination. […] Wako Pure Chemical Industries, Ltd.)
# db/db mice [6] = assay: Chronic combination treatment of compound A and metformin hydrochloride in diabetic mice; conditions: mean ± standard error; for Fasting plasma glucose level: after 27 days, fasted 16 hours; for Change in GHb (%) / Change in plasma IRI level: 27 days; for Change in plasma IRI level: non-fasting
# Zucker fatty rats [7] = assay: Combination treatment of compound A and vildagliptin in diabetic rats (oral glucose loading); conditions: fasted Zucker fatty rats; single oral dose compound A 1 mg/kg, vildagliptin 3 mg/kg, alone or combined; glucose 2 g/kg one hour later; up to 120 minutes; mean ± standard error
# Protocol: One hour after the administration, the rats were orally administered with glucose solutions (2 g/kg); blood was taken from the tail vein of each rat at specified time intervals and centrifuged to collect plasma. Plasma glucose levels were measured by mutarotase-GOD method with a glucose assay kit (Glucose C2 Test Wako; Wako Pure Chemical Industries, Ltd.)
# [8] = system: high-fat diet loaded mice with STZ-induced diabetes mellitus; assay: Combination treatment of compound A and glibenclamide in diabetic mice; conditions: high-fat diet STZ diabetic ICR mice, non-fasting; single oral dose compound A 1 mg/kg, glibenclamide 10 mg/kg, alone or combined; up to 8 hours; mean ± standard error
# From the text: After 3 weeks a high-fat diet (D12492 of Research Diets, Inc.) feeding, ICR mice (CHARLES RIVER LABORATORIES JAPAN, INC.) were intraperitoneally administered with streptozocin (SIGMA-ALDRICH JAPAN K.K.; hereinafter abbreviated as STZ) to induce diabetes. […] SIGMA-ALDRICH JAPAN K.K.), either alone or in combination. Blood was taken from the tail vein of each mouse at specified time intervals and centrifuged to collect plasma. […] Wako Pure Chemical Industries, Ltd.)
# Zucker fatty rats [9] = assay: Combination treatment of compound A and miglitol in diabetic rats (soluble starch loading); conditions: fasted Zucker fatty rats; single oral dose compound A 0.5 mg/kg, miglitol 3 mg/kg, alone or combined; soluble starch 2 g/kg one minute later; up to 120 minutes; mean ± standard error
# Protocol: Six male Zucker fatty rats (9-week old) were fasted and orally administered with single doses of compound A (0.5 mg/kg) and an α-glucosidase inhibitor, miglitol (3 mg/kg), either alone or in combination. One minute after the administration, the rats were orally administered with soluble starch solutions (2 g/kg); blood was taken from the tail vein of each rat at specified time intervals and centrifuged to collect plasma. Plasma glucose levels were measured by mutarotase-GOD method with a glucose assay kit (Glucose C2 Test Wako; Wako Pure Chemical Industries, Ltd.)
# [10] = system: rats with STZ-induced diabetes mellitus; assay: Combination treatment of compound A and insulin in diabetic rats; conditions: STZ diabetic SD rats, non-fasting; single oral dose compound A 1 mg/kg, subcutaneous slow-release insulin implant (one pellet), alone or combined; up to 8 hours; mean ± standard error
# From the text: SD rats (7-week old; CHARLES RIVER LABORATORIES JAPAN, INC.) were intraperitoneally administered with streptozocin (SIGMA-ALDRICH JAPAN K.K.; hereinafter abbreviated as STZ) to induce diabetes. The rats with STZ-induced diabetes mellitus (8-week old) underwent subcutaneous implant of a slow-release insulin (one pellet of […] Canada, Inc.) or sham operation. […] Blood was taken from the tail vein of each rat at specified time intervals and centrifuged to collect plasma. […] Wako Pure Chemical Industries, Ltd.)
# [11] = system: high-fat diet loaded mice with STZ-induced diabetes mellitus; assay: Combination treatment of compound A and glipizide in diabetic mice; conditions: high-fat diet STZ diabetic ICR mice, non-fasting; single oral dose compound A 1 mg/kg, glipizide 10 mg/kg, alone or combined; up to 8 hours; mean ± standard error
# Protocol: After 3 weeks a high-fat diet (D12492 of Research Diets, Inc.) feeding, ICR mice (CHARLES RIVER LABORATORIES JAPAN, INC.) were intraperitoneally administered streptozocin (SIGMA-ALDRICH JAPAN K.K.; hereinafter abbreviated as STZ) to induce diabetes. […] SIGMA-ALDRICH JAPAN K.K.), either alone or in combination. Blood was taken from the tail vein of each mouse at specified time intervals and plasma glucose levels were measured by GOD colorimetry with a self-testing glucose measuring instrument (Medisafe Mini GR-102; TERUMO CORPORATION, Japan).
# Zucker fatty rats [12] = assay: Combination treatment of compound A and voglibose in diabetic rats (soluble starch loading); conditions: fasted Zucker fatty rats; single oral dose compound A 1 mg/kg, voglibose 0.1 mg/kg, alone or combined; soluble starch 2 g/kg one minute later; up to 120 minutes; mean ± standard error
# Protocol: Six male Zucker fatty rats (10-week old) were fasted and orally administered with single doses of compound A (1 mg/kg) and an α-glucosidase inhibitor, voglibose (0.1 mg/kg), either alone or in combination. […] Wako Pure Chemical Industries, Ltd.)
# [13] = metformin hydrochloride 100 mg/kg, alone or with compound A 3 mg/kg
# [14] = metformin hydrochloride 300 mg/kg, alone or with compound A 3 mg/kg
structure (smiles),measurement,setting,value
"C[C@H]1O[C@H](O[C@H]2[C@H](O)[C@@H](O)[C@@H](O[C@H]3[C@H](O)[C@@H](O)C(O)O[C@@H]3CO)O[C@@H]2CO)[C@H](O)[C@@H](O)[C@@H]1N[C@H]1C=C(CO)[C@@H](O)[C@H](O)[C@H]1O (stereo partly drawn) [Acarbose, acarbose]",Δ plasma glucose AUC,Zucker fatty rats [1],10192.8 ± 913.6 mg·min/dL
"CCC1=C(C)CN(C(=O)NCCc2ccc(S(=O)(=O)NC(=O)N[C@H]3CC[C@H](C)CC3)cc2)C1=O [Glimepiride, glimepiride]",Plasma glucose level at 4 wk of administration,KKAy mice [2],137.6 ± 13.3 mg/dL
same,Plasma glucose level at 8 wk of administration,KKAy mice [2],160.4 ± 8.2 mg/dL
same,Δ plasma glucose AUC,C57BL mice,-104.0 ± 9.3 mg·h/dL
same,Δ plasma glucose AUC,KKAy mice [3],-118.6 ± 20.2 mg·h/dL
"CCc1ccc(CCOc2ccc(CC3SC(=O)NC3=O)cc2)nc1 (stereo not drawn) [Pioglitazone, pioglitazone]",Change in GHb (%),db/db mice [4],3.04 ± 0.36%
same,Non-fasting plasma glucose level,db/db mice [4],555.2 ± 56.9 mg/dL
same,Change in plasma IRI level,db/db mice [4],-43.29 ± 3.83 ng/dL
"N[C@@H](CC(=O)N1CCn2c(nnc2C(F)(F)F)C1)Cc1cc(F)c(F)cc1F [Sitagliptin, sitagliptin]",Δ plasma glucose AUC,Zucker fatty rats [5],13881.4 ± 1292.9 mg·min/dL
"CN(C)C(=N)N=C(N)N [Metformin hydrochloride, metformin hydrochloride]",Fasting plasma glucose level,db/db mice [6]; [13],378.3 ± 33.4 mg/dL
same,Change in GHb (%),"db/db mice [6]; metformin hydrochloride 100 mg/kg, alone or with compound A 3 mg/kg, oral",2.08 ± 0.33%
same,Fasting plasma glucose level,db/db mice [6]; [14],254.0 ± 24.7 mg/dL
same,Change in GHb (%),"db/db mice [6]; metformin hydrochloride 300 mg/kg, alone or with compound A 3 mg/kg, oral",1.70 ± 0.23%
same,Change in plasma IRI level,db/db mice [6]; [13],-9.81 ± 0.91 ng/mL
same,Change in plasma IRI level,db/db mice [6]; [14],-7.36 ± 1.29 ng/mL
"CCOc1ccc(Cc2cc([C@@H]3S[C@H](CO)[C@@H](O)[C@H](O)[C@H]3O)c(OC)cc2C)cc1 [Compound A, (1S)-1,5-anhydro-1-[5-(4-ethoxybenzyl)-2-methoxy-4-methylphenyl]-1-thio-D-glucitol]",Plasma glucose level at 4 wk of administration,KKAy mice [2],154.8 ± 5.9 mg/dL
same,Plasma glucose level at 8 wk of administration,KKAy mice [2],168.6 ± 2.2 mg/dL
same,Δ plasma glucose AUC,C57BL mice,-4.2 ± 8.5 mg·h/dL
same,Δ plasma glucose AUC,Zucker fatty rats [7],11690.1 ± 807.9 mg·min/dL
same,Δ plasma glucose AUC,Zucker fatty rats [1],9861.6 ± 1076.0 mg·min/dL
same,Δ plasma glucose AUC,[8],-130.1 ± 164.9 mg·h/dL
same,Δ plasma glucose AUC,Zucker fatty rats [9],11655.9 ± 1021.8 mg·min/dL
same,Δ plasma glucose AUC,Zucker fatty rats [5],11239.9 ± 617.8 mg·min/dL
same,Plasma glucose AUC,[10],3983.4 ± 194.5 mg·h/dL
same,Δ plasma glucose AUC,[11],-310.3 ± 157.2 mg·h/dL
same,Δ plasma glucose AUC,Zucker fatty rats [12],10940.4 ± 952.7 mg·min/dL
same,Δ plasma glucose AUC,KKAy mice [3],-83.0 ± 14.6 mg·h/dL
same,Change in GHb (%),db/db mice [4],3.15 ± 0.16%
same,Non-fasting plasma glucose level,db/db mice [4],607.9 ± 21.6 mg/dL
same,Change in plasma IRI level,db/db mice [4],-27.81 ± 4.41 ng/dL
same,Change in GHb (%),"db/db mice [6]; compound A 3 mg/kg once daily oral, alone, GHb after minus before",0.14 ± 0.39%
same,Fasting plasma glucose level,"db/db mice [6]; compound A 3 mg/kg once daily oral, alone",275.0 ± 28.7 mg/dL
same,Change in plasma IRI level,"db/db mice [6]; compound A 3 mg/kg once daily oral, alone, after minus before",-5.01 ± 2.11 ng/mL
"OCCN1C[C@H](O)[C@@H](O)[C@H](O)[C@H]1CO [Miglitol, miglitol]",Δ plasma glucose AUC,Zucker fatty rats [9],8909.4 ± 1390.0 mg·min/dL
"COc1ccc(Cl)cc1C(=O)NCCc1ccc(S(=O)(=O)NC(=O)NC2CCCCC2)cc1 [Glibenclamide, glibenclamide]",Δ plasma glucose AUC,[8],140.3 ± 107.2 mg·h/dL
"OCC(CO)N[C@H]1C[C@](O)(CO)[C@@H](O)[C@H](O)[C@H]1O [Voglibose, voglibose]",Δ plasma glucose AUC,Zucker fatty rats [12],12395.5 ± 543.0 mg·min/dL
